Some results are limits rather than exact numbers.

Experiment [1] concerns Danio rerio embryo. The experiment in a line: BMC10 any morphological effect or mortality at 120 hpf; higher = less toxic.
The test system of experiment [2] is HL-60. The experiment in a line: Cell Health Index (toxicity pseudo-probability over dose series) (index 0-1); higher = more cytotoxic / cell stress.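 Also: HL-60 cells exposed 4 h at 37 °C to ten threefold dilutions spanning 5 nM to 100 µM, multiparametric flow cytometry features scored by machine-learning classification.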

On to `c1cc(CN2CCCNCCNCCCNCC2)ccc1CN1CCCNCCNCCCNCC1` [Plerixafor], for which the “BMC10 any morphological effect or mortality” value in experiment [1] was above 100 µM. Besides, the “Cell Health Index” value in experiment [2] came out at 0.115.

On to `OC[C@H]1O[C@@H](Oc2cc(O)cc(C=Cc3ccc(O)cc3)c2)[C@H](O)[C@@H](O)[C@@H]1O` [Polydatin], for which the “BMC10 any morphological effect or mortality” value in experiment [1] is above 100 µM. For the same compound, the “Cell Health Index” value in experiment [2] is 0.106.

As to `Cc1nc(N(C)C(=O)Cc2ccc(-c3ccccn3)cc2)sc1S(N)(=O)=O` [Pritelivir], the “BMC10 any morphological effect or mortality” value in experiment [1] is above 100 µM. The “Cell Health Index” value in experiment [2] was found to be 0.209.

As to `CCCN(CCC)S(=O)(=O)c1ccc(C(=O)O)cc1` [Probenecid], in experiment [1], the “BMC10 any morphological effect or mortality” value was above 100 µM. For the same compound, the “Cell Health Index” value in experiment [2] is 0.196.

As to `O=CC1OC(=O)c2cc(O)c(O)c(O)c2-c2c(cc(O)c(O)c2O)C(=O)OC1C1OC(=O)c2cc(O)c(O)c(O)c2-c2c(O)c(O)c3oc(=O)c4c(c(O)c(O)c5oc(=O)c2c3c54)-c2c(cc(O)c(O)c2O)C(=O)OCC1O` (centres undefined) [Punicalagin], the “BMC10 any morphological effect or mortality” value in experiment [1] is above 100 µM. For the same compound, the “Cell Health Index” value in experiment [2] worked out at 0.837.

`CC(C)[C@H](NC(=O)c1ccc2ccccc2n1)C(=O)N[C@@H](CC(=O)O)C(=O)COc1c(F)cccc1F` [Q-VD-OPH]: the “BMC10 any morphological effect or mortality” value in experiment [1] was above 100 µM. For the same compound, the “Cell Health Index” value in experiment [2] worked out at 0.221.

As for `O=c1c(O[C@@H]2O[C@H](CO)[C@H](O)[C@H](O)[C@H]2O)c(-c2ccc(O)c(O)c2)oc2cc(O)cc(O)c12` [Quercetin 3-D-galactoside], the “BMC10 any morphological effect or mortality” value in experiment [1] was above 100 µM. Also, the “Cell Health Index” value in experiment [2] was determined as 0.218.

On to `C=C[C@H]1C[N@@]2CC[C@H]1C[C@H]2[C@H](O)c1ccnc2ccc(OC)cc12` [Quinine], for which, in experiment [1], the “BMC10 any morphological effect or mortality” value is above 100 µM. Also, in experiment [2], the “Cell Health Index” value was 0.249.

Regarding `Cc1nnc(C(=O)NC(C)(C)c2nc(C(=O)NCc3ccc(F)cc3)c([O-])c(=O)n2C)o1.[K+]` [Raltegravir], the “BMC10 any morphological effect or mortality” value in experiment [1] was above 100 µM. Moreover, the “Cell Health Index” value in experiment [2] is 0.218.

In the case of `CCC(CC)COC(=O)[C@H](C)N[P@](=O)(OC[C@H]1O[C@@](C#N)(c2ccc3c(N)ncnn23)[C@H](O)[C@@H]1O)Oc1ccccc1` [Remdesivir], in experiment [1], the “BMC10 any morphological effect or mortality” value was above 100 µM. Also, in experiment [2], the “Cell Health Index” value was found to be 0.275.

Take `CCOCc1nc2c(N)nc3ccccc3c2n1CC(C)(C)O` [Resiquimod]: the “BMC10 any morphological effect or mortality” value in experiment [1] was above 100 µM. The “Cell Health Index” value in experiment [2] was found to be 0.38.

Turning to `Oc1ccc(/C=C\c2cc(O)cc(O)c2)cc1` [Resveratrol], the “BMC10 any morphological effect or mortality” value in experiment [1] is above 100 µM. Besides, the “Cell Health Index” value in experiment [2] is 0.416.

In the case of `Cc1cc(/C=C/C#N)cc(C)c1Nc1ccnc(Nc2ccc(C#N)cc2)n1` [Rilpivirine], the “BMC10 any morphological effect or mortality” value in experiment [1] was above 100 µM. Besides, the “Cell Health Index” value in experiment [2] stood at 0.639.

For the compound `CC(N)C12C[C@H]3C[C@@H](C1)C[C@@H](C2)C3.Cl` (some centres undefined) [Rimantadine], the “BMC10 any morphological effect or mortality” value in experiment [1] was above 100 µM. Further, the “Cell Health Index” value in experiment [2] turned out to be 0.137.

With `O=P([O-])(O)C(O)(Cc1cccnc1)P(=O)(O)O.[Na+]` [Risedronic acid], the “BMC10 any morphological effect or mortality” value in experiment [1] was above 100 µM. In experiment [2], the “Cell Health Index” value turned out to be 0.203.

Take `CC(C)c1nc(CN(C)C(=O)N[C@H](C(=O)N[C@@H](Cc2ccccc2)C[C@H](O)[C@H](Cc2ccccc2)NC(=O)OCc2cncs2)C(C)C)cs1` [Ritonavir]: the “BMC10 any morphological effect or mortality” value in experiment [1] was above 100 µM. Besides, in experiment [2], the “Cell Health Index” value amounted to 0.532.

Turning to `Nc1ccc(-c2nc3ccc(-c4nc5cc(N)ccc5[nH]4)cc3[nH]2)cc1` [Ro 90-7501], the “BMC10 any morphological effect or mortality” value in experiment [1] is above 100 µM. The “Cell Health Index” value in experiment [2] stood at 0.512.

Turning to `COc1ccc(C2CNC(=O)C2)cc1OC1CCCC1` (centres undefined) [Rolipram], the “BMC10 any morphological effect or mortality” value in experiment [1] was above 100 µM. Moreover, the “Cell Health Index” value in experiment [2] was 0.152.

With `C[C@@H]1O[C@@H](OC[C@H]2O[C@@H](Oc3c(-c4ccc(O)c(O)c4)oc4cc(O)cc(O)c4c3=O)[C@H](O)[C@@H](O)[C@@H]2O)[C@H](O)[C@H](O)[C@H]1O.O.O.O` [Rutin], the “BMC10 any morphological effect or mortality” value in experiment [1] is above 100 µM. In experiment [2], the “Cell Health Index” value was determined as 0.252.

On to `Cc1ccc(S(=O)(=O)OCC(=O)Nc2ccc(C(=O)O)c(O)c2)cc1` [S3I-201], for which the “BMC10 any morphological effect or mortality” value in experiment [1] is above 100 µM. The “Cell Health Index” value in experiment [2] was found to be 0.259.

Consider `CC(=O)SC[C@H](NC(=O)CC[C@H](N)C(=O)O)C(=O)NCC(=O)O` [S-acetyl-L-Glutathione], for which the “BMC10 any morphological effect or mortality” value in experiment [1] is above 100 µM. Besides, the “Cell Health Index” value in experiment [2] was found to be 0.168.

Regarding `O=C(CCCCCCC(=O)Nc1ccccc1)NO` [SAHA], the “BMC10 any morphological effect or mortality” value in experiment [1] was above 100 µM. The “Cell Health Index” value in experiment [2] is 0.239.

Values taken from the supplement of paper PMC11821682.
